Results published in ChEMBL document CHEMBL1909046, “DrugMatrix in vitro pharmacology data”.

Tests used:
[1] = molecular target: T1, Alpha-2A adrenergic receptor (Homo sapiens, UniProt P08913); assay type: cell membranes, Sf9, Membrane; conditions: sf9; further: in other assays of this panel Not Active means under 50% inhibition at 10 µM
T1 sequence (P08913 whole entry): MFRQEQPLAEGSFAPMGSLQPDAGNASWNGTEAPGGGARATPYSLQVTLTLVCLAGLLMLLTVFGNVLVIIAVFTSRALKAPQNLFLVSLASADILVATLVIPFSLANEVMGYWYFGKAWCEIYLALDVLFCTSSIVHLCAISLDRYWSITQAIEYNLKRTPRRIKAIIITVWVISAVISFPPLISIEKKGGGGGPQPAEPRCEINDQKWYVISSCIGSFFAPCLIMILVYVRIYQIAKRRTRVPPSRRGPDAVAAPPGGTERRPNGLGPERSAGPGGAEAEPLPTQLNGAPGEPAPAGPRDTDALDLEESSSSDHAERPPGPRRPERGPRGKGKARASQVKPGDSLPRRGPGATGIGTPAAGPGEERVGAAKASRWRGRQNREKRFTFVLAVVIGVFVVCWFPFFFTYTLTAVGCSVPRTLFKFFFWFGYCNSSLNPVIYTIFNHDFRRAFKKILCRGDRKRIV

[2] = molecular target: 5-hydroxytryptamine receptor 2B (Homo sapiens, UniProt P41595); assay type: cell membranes, CHO-K1, Membrane; conditions: cho-k1; further: in other assays of this panel Not Active means under 50% inhibition at 10 µM
[3] = DRUGMATRIX: Serotonin (5-Hydroxytryptamine) 5-HT3 radioligand binding (ligand: [3H] GR-65630); assay type: cell membranes, Membrane; conditions: hek293; Not Active = under 50% inhibition at 10 µM
[4] = molecular target: T2, 3-hydroxy-3-methylglutaryl-coenzyme A reductase (Homo sapiens, UniProt P04035); parameters: species or system Escherichia coli;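 further: enzyme inhibition assay of HMG-CoA reductase using radiolabeled [14C]HMG-CoA as substrate; in other assays of this panel Not Active means under 50% inhibition at 10 µM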
T2 sequence (P04035 whole entry): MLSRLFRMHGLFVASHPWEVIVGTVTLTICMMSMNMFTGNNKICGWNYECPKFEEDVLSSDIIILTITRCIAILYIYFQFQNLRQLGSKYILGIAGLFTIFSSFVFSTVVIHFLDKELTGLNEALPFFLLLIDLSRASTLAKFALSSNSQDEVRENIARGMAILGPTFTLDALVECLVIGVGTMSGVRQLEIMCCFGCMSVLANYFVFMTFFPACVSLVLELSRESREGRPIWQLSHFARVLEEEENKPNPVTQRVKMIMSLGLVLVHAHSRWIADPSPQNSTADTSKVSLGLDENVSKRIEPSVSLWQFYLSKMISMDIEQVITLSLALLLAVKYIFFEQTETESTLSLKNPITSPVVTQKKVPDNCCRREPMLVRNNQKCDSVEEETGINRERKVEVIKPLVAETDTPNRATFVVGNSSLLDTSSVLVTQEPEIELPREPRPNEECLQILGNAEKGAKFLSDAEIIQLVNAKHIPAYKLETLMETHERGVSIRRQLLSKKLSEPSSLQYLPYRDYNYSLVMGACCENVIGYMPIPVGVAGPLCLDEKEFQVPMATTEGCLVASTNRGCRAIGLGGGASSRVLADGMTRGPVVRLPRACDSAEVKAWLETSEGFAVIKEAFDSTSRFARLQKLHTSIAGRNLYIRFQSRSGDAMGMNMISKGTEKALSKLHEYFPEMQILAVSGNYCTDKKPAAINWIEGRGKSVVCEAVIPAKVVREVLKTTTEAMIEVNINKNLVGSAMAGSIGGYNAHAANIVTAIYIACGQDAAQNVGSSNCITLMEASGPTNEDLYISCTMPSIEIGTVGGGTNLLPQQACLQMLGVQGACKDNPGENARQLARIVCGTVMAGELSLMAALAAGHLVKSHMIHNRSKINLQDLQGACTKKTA

[5] = molecular target: T3, Nitric oxide synthase, inducible (Mus musculus, UniProt P29477); parameters: species or system Escherichia coli;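 further: inhibition of iNOS enzyme activity measured with L-arginine as substrate; in other assays of this panel Not Active means under 50% inhibition at 10 µM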
T3 sequence (P29477 whole entry): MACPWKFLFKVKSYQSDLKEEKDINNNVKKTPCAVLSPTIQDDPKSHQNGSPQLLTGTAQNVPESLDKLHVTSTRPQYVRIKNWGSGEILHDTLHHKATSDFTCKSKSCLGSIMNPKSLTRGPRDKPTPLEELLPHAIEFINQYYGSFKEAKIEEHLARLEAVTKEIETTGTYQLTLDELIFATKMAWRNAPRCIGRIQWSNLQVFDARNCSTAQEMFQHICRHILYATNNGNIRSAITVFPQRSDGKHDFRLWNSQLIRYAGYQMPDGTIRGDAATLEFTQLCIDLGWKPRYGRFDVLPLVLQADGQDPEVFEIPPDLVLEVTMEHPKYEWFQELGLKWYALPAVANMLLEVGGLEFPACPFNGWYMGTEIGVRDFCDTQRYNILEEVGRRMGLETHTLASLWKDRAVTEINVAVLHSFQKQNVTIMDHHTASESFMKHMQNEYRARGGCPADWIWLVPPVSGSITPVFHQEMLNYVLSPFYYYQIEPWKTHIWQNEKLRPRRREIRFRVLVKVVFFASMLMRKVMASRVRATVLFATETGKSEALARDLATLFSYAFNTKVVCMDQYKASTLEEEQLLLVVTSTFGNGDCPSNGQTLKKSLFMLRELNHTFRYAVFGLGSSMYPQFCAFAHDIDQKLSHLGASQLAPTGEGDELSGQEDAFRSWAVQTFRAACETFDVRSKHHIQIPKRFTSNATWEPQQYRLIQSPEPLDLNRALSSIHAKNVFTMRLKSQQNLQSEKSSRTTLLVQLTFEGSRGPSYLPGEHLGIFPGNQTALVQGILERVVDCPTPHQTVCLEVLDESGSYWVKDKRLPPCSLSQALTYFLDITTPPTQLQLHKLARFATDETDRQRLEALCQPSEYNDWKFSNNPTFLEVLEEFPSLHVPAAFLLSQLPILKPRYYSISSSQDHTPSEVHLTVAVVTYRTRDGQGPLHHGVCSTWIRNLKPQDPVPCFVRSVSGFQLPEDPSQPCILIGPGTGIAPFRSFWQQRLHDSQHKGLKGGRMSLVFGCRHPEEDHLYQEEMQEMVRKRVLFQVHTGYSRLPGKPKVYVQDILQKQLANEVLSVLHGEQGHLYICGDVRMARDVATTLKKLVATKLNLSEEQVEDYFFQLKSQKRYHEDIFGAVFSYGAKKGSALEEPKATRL

[6] = molecular target: 5-hydroxytryptamine receptor 1B (Rattus norvegicus, UniProt P28564); assay type: cell membranes, Wistar, Cerebral cortex, Membrane; further: in other assays of this panel Not Active means under 50% inhibition at 10 µM
Chain of 5-hydroxytryptamine receptor 1B (P28564 whole entry): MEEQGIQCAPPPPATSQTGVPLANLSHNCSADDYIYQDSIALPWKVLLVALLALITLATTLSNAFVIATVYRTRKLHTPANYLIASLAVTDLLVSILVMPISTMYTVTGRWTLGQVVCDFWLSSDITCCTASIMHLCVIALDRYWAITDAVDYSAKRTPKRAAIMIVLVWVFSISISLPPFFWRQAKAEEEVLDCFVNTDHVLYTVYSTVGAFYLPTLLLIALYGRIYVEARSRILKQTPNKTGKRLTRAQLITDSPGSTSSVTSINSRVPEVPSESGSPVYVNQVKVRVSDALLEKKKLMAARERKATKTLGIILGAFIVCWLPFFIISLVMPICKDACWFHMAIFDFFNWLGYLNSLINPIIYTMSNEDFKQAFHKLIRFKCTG

Chain of 5-hydroxytryptamine receptor 2B (P41595 whole entry): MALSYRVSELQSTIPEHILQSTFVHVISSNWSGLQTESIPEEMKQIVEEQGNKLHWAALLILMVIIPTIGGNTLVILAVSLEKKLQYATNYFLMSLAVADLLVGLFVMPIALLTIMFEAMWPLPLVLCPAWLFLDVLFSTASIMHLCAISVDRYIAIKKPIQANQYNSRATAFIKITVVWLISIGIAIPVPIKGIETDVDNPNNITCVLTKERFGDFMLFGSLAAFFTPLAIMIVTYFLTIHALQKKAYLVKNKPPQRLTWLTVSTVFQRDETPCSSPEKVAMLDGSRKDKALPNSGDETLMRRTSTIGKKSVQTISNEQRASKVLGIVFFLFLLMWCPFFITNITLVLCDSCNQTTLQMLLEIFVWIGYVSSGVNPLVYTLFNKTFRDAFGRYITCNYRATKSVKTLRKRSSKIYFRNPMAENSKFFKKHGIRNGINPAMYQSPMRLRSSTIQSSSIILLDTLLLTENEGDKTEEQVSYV

CC[C@]1(O)C[C@@H]2CN(CCc3c([nH]c4ccccc34)[C@@](C(=O)OC)(c3cc4c(cc3OC)N(C)[C@H]3[C@@](O)(C(N)=O)[C@H](O)[C@]5(CC)C=CCN6CC[C@]43[C@@H]65)C2)C1 [VINDESINE]
Not Active: IC50 [1] | IC50 [2] | IC50 [3] | Ki [3] | IC50 [4] | IC50 [5] | IC50 [6]

CCn1cc(C(=O)O)c(=O)c2cc(F)c(N3CCNC(C)C3)c(F)c21 (stereo not given) [LOMEFLOXACIN]
Not Active: IC50 [1] | IC50 [2] | IC50 [3] | Ki [3] | IC50 [4] | IC50 [5] | IC50 [6]

CN1CCN(c2c(F)cc3c(=O)c(C(=O)O)cn(CCF)c3c2F)CC1 [FLEROXACIN]
Not Active: IC50 [1] | IC50 [2] | IC50 [3] | Ki [3] | IC50 [4] | IC50 [5] | IC50 [6]

CC(C)(C(=O)O)c1ccc(C(O)CCCN2CCC(C(O)(c3ccccc3)c3ccccc3)CC2)cc1 (stereo not given) [FEXOFENADINE]
Not Active: IC50 [1] | IC50 [2] | IC50 [3] | Ki [3] | IC50 [4] | IC50 [5] | IC50 [6]

C[C@H]1COc2c(N3CCN(C)CC3)c(F)cc3c(=O)c(C(=O)O)cn1c23.C[C@H]1COc2c(N3CCN(C)CC3)c(F)cc3c(=O)c(C(=O)O)cn1c23.O [LEVOFLOXACIN]
Not Active: IC50 [1] | IC50 [2] | IC50 [3] | Ki [3] | IC50 [4] | IC50 [5] | IC50 [6]

NC(=O)c1cccc(N)c1 [3-AMINOBENZAMIDE]
Not Active: IC50 [1] | IC50 [2] | IC50 [3] | Ki [3] | IC50 [4] | IC50 [5] | IC50 [6]

CC(=O)OC[C@H]1O[C@@H](n2ncc(=O)[nH]c2=O)[C@H](OC(C)=O)[C@@H]1OC(C)=O [AZARIBINE]
Not Active: IC50 [1] | IC50 [2] | IC50 [3] | Ki [3] | IC50 [4] | IC50 [5] | IC50 [6]

NC(=O)N1c2ccccc2CC(=O)c2ccccc21 [OXCARBAZEPINE]
Not Active: IC50 [1] | IC50 [2] | IC50 [3] | Ki [3] | IC50 [4] | IC50 [5] | IC50 [6]

C#C[C@]1(O)CC[C@H]2[C@@H]3CCC4=CC(=O)CC[C@]4(C)[C@H]3CC[C@@]21C [ETHISTERONE]
Not Active: IC50 [1] | IC50 [2] | IC50 [3] | Ki [3] | IC50 [4] | IC50 [5] | IC50 [6]

CCC1=C(C)CN(C(=O)NCCc2ccc(S(=O)(=O)NC(=O)N[C@H]3CC[C@H](C)CC3)cc2)C1=O [GLIMEPIRIDE]
Not Active: IC50 [1] | IC50 [2] | IC50 [3] | Ki [3] | IC50 [4] | IC50 [5] | IC50 [6]

O=C(O)CCCc1cccs1
Not Active: IC50 [1] | IC50 [2] | IC50 [3] | Ki [3] | IC50 [4] | IC50 [5] | IC50 [6]

Cc1ccc(C)c(OCCCC(C)(C)C(=O)O)c1 [GEMFIBROZIL]
Not Active: IC50 [1] | IC50 [2] | IC50 [3] | Ki [3] | IC50 [4] | IC50 [5] | IC50 [6]

NNCCc1ccccc1 [PHENELZINE]
Not Active: IC50 [1] | IC50 [2] | IC50 [3] | Ki [3] | IC50 [4] | IC50 [5] | IC50 [6]

O=C(O)CCNC(=O)c1ccc(/N=N/c2ccc(O)c(C(=O)O)c2)cc1 [BALSALAZIDE]
Not Active: IC50 [1] | IC50 [2] | IC50 [3] | Ki [3] | IC50 [4] | IC50 [5] | IC50 [6]

C[S+](C)[O-] [DIMETHYL SULFOXIDE]
Not Active: IC50 [1] | IC50 [2] | IC50 [3] | Ki [3] | IC50 [4] | IC50 [5] | IC50 [6]
